Test results taken from patent US12583818B2 (DAEGU-GYEONGBUK MEDICAL INNOVATION FOUNDATION, priority 2020, dated 2026).
Read-outs that look alike come from different tables or passages of the source.

Legend:
[1] = system: MCF7-SP cells (breast cancer stem cells); experiment: Sphere cell viability of MCF7-SP cells (Cell-titer Glo); assay type: cell-based
Protocol: (§1) In order to confirm the inhibitory effect of the compound represented by formula 1 according to the present invention on the growth of MCF7, MCF7-SP, A2780 or A2780-SP cells, the following experiment was performed, and the results are shown in Tables 4 and 5 below.
On the other hand, MCF7-SP cells (breast cancer stem cells) were plated in an Ultra-Low Attachment round bottom 96-well plate (corning) at the density of 1,500 viable cells per well, and cultured in cancer stem cell medium. The cancer stem cell medium is composed of the neurobasal medium supplemented with 20 ng/ml of bFGF, 10 ng/ml of EGF, 2.5 […], HEPES, Glutamax and B27.
On the next day of culture, the cells were treated with the compound of Example 71, 76, 80, 84, 92, 99, 100 or 119, followed by culture for 8 days. The medium containing the compound was added thereto once again on the 4th day. Sphere cell viability was evaluated by Cell-titer Glo (Promega, WC, USA), and luciferase activity was detected using a Tecan plate reader (Biocompare, USA).

[2] = system: A2780-SP cells (ovarian cancer stem cells); experiment: Sphere cell viability of A2780-SP cells (Cell-titer Glo); assay type: cell-based
How it was run: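 A2780-SP ovarian cancer stem cells grown as spheres in ultra-low-attachment wells (1,500 cells/well) in neurobasal stem-cell medium with bFGF, EGF, B27. Compound added the day after plating, re-dosed on day 4, 8-day culture total; viability by CellTiter-Glo luminescence.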

[3] = system: MCF7 cells (breast cancer cells); experiment: Cell viability of MCF7 cells (Cell-titer Glo); assay type: cell-based; details: Homo sapiens
Protocol: as §1
MCF7 cells (breast cancer cells) were plated in a 96-well plate at the density of 3000 viable cells per well, and cultured in DMEM/High glucose medium supplemented with 10% FBS and 1% penicillin/streptomycin.
On the next day of culture, the cells were treated with the compound of Example 71, 76, 80, 84, 92, 99, 100 or 119, followed by culture for 3 days. Cell viability was evaluated by Cell-titer Glo (Promega, WC, USA), and luciferase activity was detected using a Tecan plate reader (Biocompare, USA).

[4] = target: T1, Pin1 (Homo sapiens, UniProt Q13526); experiment: Evaluation of Pin1 enzyme inhibitory activity (Sensolyte Green Pin1 assay kit); assay type: biochemical
T1 construct: purchased Anaspec
How it was run: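 Compounds were tested at four working concentrations (100, 10, 1, 0.1 μM), mixed with Pin1 (50 μg/ml stock dilution), developer and substrate (1 μM as prepared). Fluorescence at 490/520 nm was recorded after 2 h in the dark at room temperature. Results were grouped into grades A–D by inhibiting concentration.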

[5] = system: MDA-MB 231 triple negative breast cancer cell line; experiment: MDA-MB 231 protein expression inhibition (Western blotting, cycline D1 vs Vinculin); assay type: cell-based; details: Homo sapiens, compound 10 μM, 72 hours, cycline D1 Western blot, read-out: MBA-MB-231 (amount of the protein compared to the DMSO-treated control group)
Protocol: In order to confirm the ability of the compound represented by formula 1 according to the present invention to inhibit the protein expression of MDA-MB 231 triple negative breast cancer cell line, the following experiment was performed, and the results are shown in Table 3 below.
MDA-MB-231 cells were cultured in a 5% CO2 incubator at 37° C. using RPMI medium supplemented with 10% FBS and 1% penicillin/streptomycin.
The cells were washed with PBS once a day, and then replaced with a new medium. The cells grown at the density of at least 90% 1 day before the experiment were detached using trypsin/EDTA, and then plated at the density of 100,000 per well in a 6-well plate.
On the next day of culture, the compound prepared in each example was treated at a concentration of 10 μM, and DMSO was treated at a concentration of 0.1% of the total as the control, followed by incubation for 72 hours. After 72 hours, the cells were washed twice with PBS, collected by scraping, and centrifuged at 13,000 rpm for 3 minutes to remove all the supernatant and only cells were taken.
RIPA buffer (containing 1× protease inhibitor and phosphatase inhibitor) was added to the prepared cells (80 μl/well), and the plate was shaken once every 5 minutes to disrupt the cells for a total of 15 minutes. The disrupted cells were centrifuged at 13,000 rpm for 15 minutes to collect only the supernatant protein. The obtained protein was quantified using a BCA protein quantification kit (Pierece, MA, USA), and a total of 10 μg of the protein was used for Western blotting.
The protein sample was isolated by 10% SDS-PAGE, and transferred to a PVDF membrane. Anti-human cycline D1 antibody (Cell signal) and anti-Vinculin antibody were bound to the protein sample, and the expression of the protein was measured by using an ECL reagent and LAS4000 equipment. The measurement results were quantified and generalized using ImageJ. The results are shown in Table 3 below by dividing the grades A to D according to the amount of the protein compared to the DMSO-treated control group.

[6] = system: A2780 cells (ovarian cancer cells); experiment: Cell viability of A2780 cells (Cell-titer Glo); assay type: cell-based; details: Homo sapiens
How it was run: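 A2780 ovarian cancer cells seeded at 3000 viable cells/well in RPMI-1640 with 10% FBS, dosed the next day and grown 3 days. Viability measured by Cell-titer Glo luminescence.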

[7] = 192 h, sphere cell viability, culture for 8 days, read-out: MCF7-SP
[8] = text summary of Table 4, read-out: MCF7-SP cell concentration
[9] = 192 h, sphere cell viability, culture for 8 days, read-out: A2780-SP
[10] = Table 5, read-out: the concentration (second list of b710, cell line not named; matches A2780-SP column)
[11] = 72 h, cell viability, culture for 3 days, read-out: MCF7
[12] = MCF7, text summary of Table 4, read-out: MCF7 cell concentration
[13] = Table 2, read-out: concentration at which Pin1 inhibitory activity was exhibited
[14] = concentration at which the Pin1 enzyme activity is inhibited, 2 hours at room temperature, fluorescence 490 nm/520 nm, read-out: Pin 1 inhibition
[15] = 72 h, cell viability, culture for 3 days, read-out: A2780
[16] = A2780, Table 5, read-out: A2780 cell concentration

T1 sequence (Q13526 whole entry): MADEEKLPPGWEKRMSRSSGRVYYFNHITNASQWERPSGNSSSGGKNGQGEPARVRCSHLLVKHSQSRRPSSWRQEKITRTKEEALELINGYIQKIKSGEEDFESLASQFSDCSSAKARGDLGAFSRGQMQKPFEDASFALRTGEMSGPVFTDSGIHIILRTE

SMILES | IC50 [1, 7] [nM] | IC50 [1, 8] [nM] | IC50 [2, 9] [nM] | IC50 [2, 10] [nM] | IC50 [3, 11] [nM] | IC50 [3, 12] [nM] | IC50 [4, 13] [nM] | IC50 [4, 14] [nM] | activity at 10 µM [5] [%] | IC50 [6, 15] [nM] | IC50 [6, 16] [nM]
CN1CCCN(CCCOc2ccc(S(=O)(=O)NCCCc3c[nH]c4ccc(Cl)cc34)cc2)CC1 [Example 83, N-(3-(5-chloro-1H-indol-3-yl)propyl)-4-(3-(4-methyl-1,4-diazepan-1-yl)propoxy)benzenesulfonamide] | 1000 to 10000 | < 10000 | < 1000 | < 1000 | 1000 to 10000 | < 10000 | < 1000 | < 1000 | 0 to 35 | 1000 to 10000 | < 10000
CN1CCN(CCCNc2ccc(S(=O)(=O)NCCCc3c[nH]c4ccc(Cl)cc34)cc2)CC1 [Example 98, N-(3-(5-chloro-1H-indole-3-yl)propyl)-4-((3-(4-methylpiperazine-1-yl)propyl)amino)benzenesulfonamide] | > 10000 | – | 1000 to 10000 | – | > 10000 | – | < 1000 | < 1000 | 0 to 35 | 1000 to 10000 | < 10000
O=S(=O)(NCCCc1c[nH]c2ccc(Cl)cc12)c1ccc(OCCCN2CCC(O)CC2)cc1 [Example 75, N-(3-(5-chloro-1H-indol-3-yl)propyl)-4-(3-(4-hydroxypiperidin-1-yl)propoxy)benzenesulfonamide] | > 10000 | – | 1000 to 10000 | – | 1000 to 10000 | < 10000 | < 1000 | < 1000 | 0 to 35 | 1000 to 10000 | < 10000
O=S(=O)(NCCCc1c[nH]c2ccc(Cl)cc12)c1ccc(CCCCN2CCNCC2)cc1 [Example 91, N-(3-(5-chloro-1H-indol-3-yl)propyl)-4-(4-(piperazin-1-yl)butyl)benzenesulfonamide] | 1000 to 10000 | < 10000 | < 1000 | < 1000 | 1000 to 10000 | < 10000 | < 1000 | < 1000 | 0 to 35 | > 10000 | –
O=S(=O)(NCCCc1c[nH]c2ccc(Cl)cc12)c1ccc(OCCCN2CCNCC2)nc1 [Example 79, N-(3-(5-chloro-1H-indole-3-yl)propyl)-6-(3-(piperazine-1-yl)propoxy)pyridine-3-sulfonamide] | > 10000 | – | < 1000 | < 1000 | > 10000 | – | < 1000 | < 1000 | 0 to 35 | > 10000 | –
O=S(=O)(NCCCc1c[nH]c2ccc(Cl)cc12)c1ccc(OCCCN2CCNCC2)cc1 [Example 70, N-(3-(5-chloro-1H-indol-3-yl)propyl)-4-(3-(piperazin-1-yl)propoxy)benzenesulfonamide] | 1000 to 10000 | < 10000 | < 1000 | < 1000 | 1000 to 10000 | < 10000 | < 1000 | < 1000 | 0 to 35 | 1000 to 10000 | < 10000
O=S(=O)(NCCCc1c[nH]c2ccc(Cl)cc12)c1ccc(CCCCC2CCNCC2)cc1 [Example 99, N-(3-(5-chloro-1H-indole-3-yl)propyl)-4-(4-(piperidine-4-yl)butyl)benzenesulfonamide] | 1000 to 10000 | < 10000 | < 1000 | < 1000 | 1000 to 10000 | < 10000 | < 1000 | < 1000 | 0 to 35 | 1000 to 10000 | < 10000
O=S(=O)(NCCCc1c[nH]c2ccc(Cl)cc12)c1ccc(OCCCN2CCCNCC2)c(F)c1 [Example 106, 4-(3-(1,4-diazepan-1-yl)propoxy)-N-(3-(5-chloro-1H-indol-3-yl)propyl)-3-fluorobenzenesulfonamide] | – | – | < 1000 | < 1000 | – | – | < 1000 | < 1000 | 50 to 70 | 1000 to 10000 | < 10000
CN1CCN(c2cccc(Oc3ccc(S(=O)(=O)NCCCc4c[nH]c5ccc(Cl)cc45)cc3)c2)CC1 [Example 118, N-(3-(5-chloro-1H-indole-3-yl)propyl)-4-(3-(4-methylpiperazine-1-yl)phenoxy)benzenesulfonamide] | 1000 to 10000 | < 10000 | < 1000 | < 1000 | 1000 to 10000 | < 10000 | < 1000 | < 1000 | 50 to 70 | > 10000 | –
CN1CCC(CCCOc2ccc(S(=O)(=O)NCCCc3c[nH]c4ccc(Cl)cc34)cc2)CC1 [Example 92, N-(3-(5-chloro-1H-indole-3-yl)propyl)-4-(3-(1-methylpiperidine-4-yl)propoxy)benzenesulfonamide] | – | – | < 1000 | < 1000 | – | – | < 1000 | < 1000 | 0 to 35 | > 10000 | –
CNC1CN(CCCOc2ccc(S(=O)(=O)NCCCc3c[nH]c4ccc(Cl)cc34)cc2)C1 [Example 77, N-(3-(5-chloro-1H-indole-3-yl)propyl)-4-(3-(3-(methylamino)azetidine-1-yl)propoxy)benzenesulfonamide] | – | – | 1000 to 10000 | – | – | – | < 1000 | < 1000 | 0 to 35 | > 10000 | –
